Common to all, as to type: in vivo
In one assay the test system is Lolium rigidum (LOLRI). The assay can be described thus: Herbicidal post-emergence action, section E (Table E6). Conditions: application rate 320 g/ha, visual assessment ca. 3 weeks after spraying; for pest or weed control at 320 g/ha: Lolium rigidum, 504 h, read-out: post-emergence activity against LOLRI in %. From the text:
(§1) Seeds of mono- and dicotyledonous weed plants and crop plants were sown, in plastic or organic planting pots, in sandy loam, covered with soil and grown in a greenhouse under controlled growth conditions. 2 to 3 weeks after sowing, the test plants were sprayed in the single-leaf stage. The compounds according to the invention, formulated in form of wettable powders (WP) or as emulsifiable concentrates (EC), were sprayed onto the green plant parts as aqueous suspension or emulsion, with the addition of 0.5% of an additive, at an application rate of 600 l of water/ha (converted). The test plants were placed in the greenhouse for ca. 3 weeks under optimum growth conditions, and then the effect of the preparations was assessed visually in comparison with untreated controls (herbicidal effect in percent (%): 100% effect=plants have died off, 0% effect=as control plants).

The subject of assay [1] is Digitaria sanguinalis (DIGSA). The assay is described as follows: Herbicidal post-emergence action, section E (Table E4). Conditions: application rate 80 g/ha; assessed visually ca. 3 weeks after treatment vs untreated controls; 100% = plants have died off, 0% = as control plants.
Excerpt: as §1

The test system of another assay is Viola tricolor (VIOTR). The assay is described as follows: Herbicidal post-emergence action, section E (Table E10). The note with it: application rate 320 g/ha, visual assessment ca. 3 weeks after spraying.
Excerpt: as §1

Consider `CCOCCS(=O)(=O)N1C[S+]([O-])c2cc(C)c(-c3ccccc3F)nc21` (stereo not drawn) [Example I-127], for which the pest or weed control at 320 g/ha with Lolium rigidum (LOLRI) was determined as 80%.

Turning to `Cc1cc2c(nc1-c1ccccc1F)NCS2` [Example I-007, 5-(2-fluorophenyl)-6-methyl-2,3-dihydro[1,3]thiazolo[4,5-b]pyridine], the “post-emergence activity against DIGSA” value in assay [1] was determined as 90%.

Regarding `COCC1(C(=O)N2CSc3cc(C)c(-c4ccccc4F)nc32)CC(Cl)=NO1` (stereo not drawn) [Example I-128], in the assay with Lolium rigidum (LOLRI), the “post-emergence activity against LOLRI in %” value was 80%.

As to `Fc1ccccc1-c1nc2c(cc1Br)SCN2` [Example I-001, 6-bromo-5-(2-fluorophenyl)-2,3-dihydro[1,3]thiazolo[4,5-b]pyridine], in the assay with Lolium rigidum (LOLRI), the pest or weed control at 320 g/ha stood at 90%.

Regarding `Cc1cc2c(nc1-c1ccccc1F)N(C(=O)C13CCCC1C(Cl)=NO3)CS2` (stereo not drawn) [Example I-104], the “post-emergence activity against VIOTR in %” value in the assay on Viola tricolor (VIOTR) was 80%.

Regarding `Cc1cc2c(nc1-c1ccccc1)N(C(=O)C1(C)CC(Cl)=NO1)CS2` (stereo not drawn) [Example I-088], the “post-emergence activity against VIOTR in %” value in the assay on Viola tricolor (VIOTR) stood at 80%.
